Data on two substances can be found in patent publication US8119400B2, “Methods of inhibiting smooth muscle cell migration and proliferation” (Beth Isreal Deaconess Medical Center, Inc., priority 2005, dated 2012).

For data set [1], the system named is HECs. In words: alamarBlue proliferation assay, HECs. It counts as cell-based, human. The conditions noted are these: 25 nM. Background: Resazurin is reduced to fluorescent resorufin, in cell work by metabolically active cells.
Data set [2] concerns MARCKS mRNA. The data set can be described thus: Rapid siRNA transfection, MARCKS mRNA knockdown, HVSMCs. It counts as cell-based, human. The conditions noted are these: 10 minutes, 2000 cells per well. The method, then:
(§1) To more rigorously study the effects of pressure on gene silencing in vascular cells and develop an in vitro model for rapid siRNA transfection, a chamber that could hold standard tissue culture plates and be pressurized with wall air was fabricated. HVSMCs and HECs were seeded in 96-well plates at a density of 6,000 cells/cm^2 and were treated with Control or MARCKS siRNA suspended in normal saline solution, without the addition of a transfection reagent, at concentrations from 1-25 μM in either water, lactate ringers solution (Baxter, Deerfield, Ill.), normal saline (Baxter), cell media, or Plasmalyte A (Baxter) supplemented with 12 mg/ml papaverine hydrochloride and 4 units/ml heparin sodium (LoGerfo, FW et al. (1984) Arch. Surg. 119(10):1212-1214). First, siRNA solutions were applied to one plate of each cell type and rapid siRNA transfection was performed by placing cells in the specially-designed pressure chamber for 10 minutes while raising the ambient pressure by 0-1 ATM using wall air. Cells were then removed from the chamber and the siRNA solution was promptly aspirated and replaced with fresh media prior to returning the plates to the incubator. Parallel plates were subjected the same siRNA treatment and placed in the chamber for 10 minutes without pressurization.
(§2) Evaluation of target gene mRNA knockdown was performed as described in Example 8 above.

Data set [3] deals with HVSMCs. In words: alamarBlue proliferation assay, HVSMCs. It counts as cell-based, human. The procedure: Phenotypic analysis of vascular cell proliferation was performed using the alamarBlue assay (Trek Diagnostics, Cleveland, Ohio), as previously described (Voytik-Harbin, SL et al. (1998) In Vitro Cell Dev. Biol. Anim. 34(3):239-246), to quantitate total cellular metabolic activity in the wells of tissue culture plates. Briefly, HVSMCs were plated on 24-well plates at a density of 10,000 cells per well and grown for 24 hours in normal cell media. Afterwards, a Day 0 measurement of fluorescent intensity after 4 hour incubation with the alamarBlue reagent was obtained prior to siRNA lipofection. 24 hour siRNA lipofection in serum-free media served as the starvation period to synchronize cells in the cell cycle, followed by the application of media with 30% FBS to stimulate proliferation. AlamarBlue assays were performed every two days, followed by the reapplication of fresh media with 30% FBS. For analysis, the fluorescence intensity of each well was determined using an LS-5B Luminescence Spectrometer (PerkinElmer) at excitation and emission wavelengths of 509 and 590 nm, respectively, and was divided by the value obtained at Day 0 to generate a measure of relative proliferation.

Data set [4] relates to p27^kip1. In words: p27kip1 Western blot after MARCKS knockdown, HVSMCs. The conditions noted are these: 25 nM, 24 hours post-induction with 30% FBS, GAPDH corrected densitometry. The format is cell-based, human. The method, then:
(§3) To investigate the differential effects of MARCKS knockdown on the proliferation of vascular cells, Western blots were performed to assess p27^kip1 expression after the induction of proliferation in HVSMCs and HECs. To assess p27^kip1 expression in the setting of MARCKS knockdown, HVSMC and HECs were transfected with 25 nM Control (C) or MARCKS (M) siRNA followed by 48 hour starvation in media with 0.1% FBS to synchronize cells in the Go phase of the cell cycle. Proliferation was then induced by the addition of media with 30% FBS and cells were lysed 24 hours post-induction for protein harvest and Western blot analysis.
(§4) Cell extracts were recovered from 6-well plates after siRNA lipofection and analyzed by sodium dodecyl sulfate-polyacrylamide gel electrophoresis (SDS-PAGE) and Western blotting with the use of standard techniques. Antibodies used for protein detection were: mouse monoclonal anti-GAPDH (1:10,000 dilution, Ambion), goat polyclonal anti-MARCKS (N-19) IgG (1:100 dilution, Santa Cruz Biotechnology, Santa Cruz, Calif.), mouse monoclonal anti-p27^kip-1 (1:250 dilution, Pharmingen, San Diego, Calif.) and mouse anti-β-tubulin IgM (clone 5H1) (1:250 dilution, Pharmingen, San Diego, Calif.). […]
(In general: Immunoblotting shows a protein as a band on a membrane.)

In data set [5] the test system is MARCKS mRNA. The data set can be described thus: MARCKS mRNA knockdown after lipofection, HECs (qRT-PCR). It counts as cell-based, human. Particulars: 5 nM, 24 hours after lipofection. The procedure:
(§5) MARCKS knockdown was achieved by lipofection of HVSMCs and HECs with MARCKS siRNA. Lipofection was performed using the DharmAFECT1 transfection reagent (Dharmacon) for 24 hours in serum- and antibiotic-free media as per manufacturer's protocol.
(§6) Evaluation of target gene mRNA knockdown after siRNA delivery was analyzed using a Stratagene MX3000P real time PCR (qRT-PCR) machine (Stratagene, La Jolla, Calif.). Total RNA was extracted from plate wells using RNeasy spin columns (Qiagen, Valencia, Calif.) and cDNA was prepared from […] using the iScript cDNA synthesis kit (Bio-Rad, Hercules, Calif.) prior to thermal cycling. For quantitative analysis, target gene levels were normalized to 18s or B2M levels as previously described (Bustin, S A et al. (2004) J. Mol. Endocrinol. 29(1):23-39), and target and housekeeper gene amplification reactions were performed in triplicate for each cDNA sample using 1 μl cDNA per reaction. […]
(§7) Thermal cycling was performed under the following conditions: Stage 1: 10 minutes at 95° C.; Stage 2 (40 cycles): 30 seconds at 95° C., 1 minute at 60° C., 30 seconds at 72° C. The Comparative Quantification software tool was used to compare normalized gene levels from cells transfected with targeting siRNA vs. non-targeting control siRNA (calibrators). […]
(Quantitative PCR measures a nucleic acid by following its amplification.)

The test system of data set [6] is VSMCs in human saphenous vein. The data set can be described thus: Proliferation after ex vivo siRNA transfection of whole vein. Particulars: 100 nM, three days after transfection, vs control siRNA. It counts as cell-based.
Data set [7] relates to HECs. The data set can be described thus: Fluoroblok migration assay, HECs. The format is cell-based, human.
Data set [8] has as its system MARCKS mRNA. In words: Rapid siRNA transfection, MARCKS mRNA knockdown, HECs. The conditions noted are these: 10 minutes, 2000 cells per well. The format is cell-based, human. The procedure: as §1, §2
Data set [9] has as its system MARCKS mRNA. In words: MARCKS mRNA knockdown after lipofection, HVSMCs (qRT-PCR). It counts as cell-based, human. The conditions noted are these: 100 nM, 24 hours after lipofection. The procedure:
as §5, §6, §7

In data set [10] the test system is MARCKS protein. In words: MARCKS protein Western blot, HVSMCs. The format is cell-based, human. Particulars: 100 nM, 3 days after lipofection. The method, then: as §5
(§8) Cell extracts were recovered from 6-well plates after siRNA lipofection and analyzed by sodium dodecyl sulfate-polyacrylamide gel electrophoresis (SDS-PAGE) and Western blotting with the use of standard techniques. Antibodies used for protein detection were: mouse monoclonal anti-GAPDH (1:10,000 dilution, Ambion), goat polyclonal anti-MARCKS (N-19) IgG (1:100 dilution, Santa Cruz Biotechnology, Santa Cruz, Calif.), mouse monoclonal anti-p27^kip-1 (1:250 dilution, Pharmingen, San Diego, Calif.) and mouse anti-β-tubulin IgM (clone 5H1) (1:250 dilution, Pharmingen, San Diego, Calif.). Secondary antibodies used were peroxidase-conjugated goat anti-mouse IgG (H+L) (1:1,000-1:5,000 dilution, Chemicon International, Temecula, Calif.) and peroxidase-conjugated rabbit anti-goat IgG (H+L) (1:500 dilution, Bio-Rad). Densitometry was performed using Adobe Photoshop 6.0 or NIH Image J 1.34.

The subject of data set [11] is p27^kip1. The data set can be described thus: p27kip1 Western blot after MARCKS knockdown, HECs. The format is cell-based, human. The conditions noted are these: 25 nM, 24 hours post-induction with 30% FBS, GAPDH corrected densitometry. The procedure:
as §3, §4

The test system of data set [12] is HVSMCs. In words: Fluoroblok migration assay, HVSMCs. It counts as cell-based, human. The conditions noted are these: 100 nM, 3 days after lipofection, 30% FBS. The procedure: The migratory and proliferative abilities of HVSMCs and HECs were assessed after MARCKS knockdown using migration and proliferation assays. Phenotypic analysis of HVSMC migration was performed using the Fluoroblok migration assay (BD Biosciences, San Jose, Calif.) to measure the ability of calcein-AM fluorescently-labeled cells to migrate through a PET membrane with […] towards a chemotactant stimulus of 30% FBS. Briefly, VSMCs were incubated in 10 μM calcein-AM (Invitrogen) for 1 hour, trypsinized, and resuspended in serum-free VSMC media. In this assay, the upper chamber of the Transwell insert is separated from the lower chamber by a fluorescently opaque polyethyleneterephthalate (PET) membrane with 8 μm pores at the base of the insert. Approximately 50,000 VSMCs were loaded in each of the upper wells. The lower wells contained media supplemented with serum-free VSMC media, VSMC media with 30% FBS, or EC-conditioned media to stimulate cell migration. At time 0, the upper chambers were read at an excitation of 485 nm and an emission of 535 nm on a Biotek Fluorometer FLX800 (BioTek Instruments) and returned to the incubator. After 24 hours, the lower chambers were read with the same settings. The proportion of cells migrated were calculated by dividing the fluorescent intensity after 24 hours by the intensity read at time 0. […]

Data set [13] has as its system MARCKS protein. The data set can be described thus: MARCKS protein Western blot, HECs. Particulars: 25 nM, 3 days after lipofection. The format is cell-based, human. The procedure: as §5, §8
Data set [14] relates to VSMCs. Particulars: 100 μM, after 5 days of serum stimulation. The method, then: When it is reduced, it emits fluorescence at 590 nm. Therefore, emission at 590 nm was used as a marker for relative cellular proliferation. Cells were incubated in the dark in media containing 10% alamarBlue (BioSource International, Carmilla, Calif.) and 10% FBS for four hours. After incubation, 1 ml of media from the incubated cells was mixed with 1 ml of media containing 10% FBS and the emission at 590 nm was recorded.
A time-zero alamarBlue Assay was performed after a 12-hour period of starvation to assure equal cell loading and synchronization in the cell cycle. The cells were incubated with predetermined concentrations of the PKC inhibitor, 20-28. Cells were incubated in media with 30% FBS for a total of 24 hours. At that point, alamarBlue assays were performed at predetermined intervals. After each assay was completed, the media was replenished with media containing 30% FBS. As in the migration assay, an unstimulated, negative control with standard media was assayed.
To inhibit the effects of MARCKS activity, cells in culture were treated with the protein kinase C inhibitor 20-28 (Calbiochem, La Jolla, Calif.). […] Eichholtz, T. et al. (1993) J. Biol. Chem. 268:1982-1986.

Data set [15] concerns VSMCs. The conditions noted are these: 100 μM, 24 hours, FBS and TNF-α stimulus. The procedure:
To assess cellular migration, a fluorescent migration assay (BD Biosciences, San Jose, Calif.) was utilized. In this assay, VSMC's grown in culture were labeled with 1 μM calcein. Approximately 50,000 cells, suspended in serum free media, were loaded onto a 0.3 cm^2 insert. The surface of the insert is a fluorescently-opaque polyethylene terephthalate (PET) membrane with 8 μm pores that are sufficiently large to permit cells to migrate across its surface. The insert was placed in a tissue culture plate with a chemotactic stimulus, TNF-α, in the lower well, which contained media with 30% FBS and TNF-A at a concentration of 200 Units/ml. Immediately after the inserts were placed into the respective wells, the wells were excited at a wavelength of 485 nm and the fluorescence emission was read at 535 nm. At the order of magnitude of cells that were used, the fluorescence is proportional to cell number in a linear relationship. After 24 hours, the plate was excited a second time and emission at 535 nm was read. Fluorescence was read only from the bottom well, such that only cells that have migrated contribute to the measured fluorescence. The proportion of cells that migrated was determined by dividing the fluorescence of the bottom of the wells at 24 hours by the initial fluorescence from the top of the wells at the time of plating. […]

Entries after “also recorded” stand apart in the source; their conditions may differ. No end group written: not given here. *: point of attachment. Myristoyl = CCCCCCCCCCCCCC(=O)*; {P} = phosphate

As for “MARCKS siRNA: siRNA, sense 5′-GGU-GCC-CAG-UUC-UCC-AAG-AUU-3′ (SEQ ID NO. 18), anti-sense SEQ ID NO. 19 with 5′ phosphate (sense GGUGCCCAGUUCUCCAAGAUU; antisense UCUUGGAGAACUGGGCACCUU; sense: chemistry not given here; antisense: 5' {P}, sugars by position and backbone not given here)”, in data set [1] (full MARCKS knockdown), the “effect on HEC proliferation” value was “only a minimal effect”. Further, the “proliferation, fold increase at day 6” value in data set [1] (HECs, relative to Day 0) came to 1.90±0.06 fold; in data set [3] (HVSMCs, 25 nM, 30% FBS, relative to Day 0), 1.41±0.36 fold. Besides, the MARCKS knockdown in [2] (0 ATM) turned out to be 0±12%; in data set [2] (0.4 ATM), 41±12%; in data set [8] (0 ATM), 22±17%; in [8] (0.4 ATM), 53±10%. In addition, the “effect on HVSMC proliferation” value in data set [3] (25 nM (FIG. 15A: 25, 50 and 100 nM), vs control scrambled siRNA) was “near complete arrest”. For the same substance, the “increase in p27^kip1 protein expression relative to controls” value in [4] is recorded as 3.2 fold; in data set [11], 1.8 fold. For the same substance, the “MARCKS mRNA knockdown” value stood at 89±1% in data set [5] and 54±2% in data set [9]. Besides, in [6], the “effect on proliferation in transfected vein” value is reported as “reduced proliferation”. Also, in [7] (25 nM (FIG. 14B also 10 nM), vs control siRNA), the “effect on cellular migration” value is on record as “no significant effect; also recorded: no significant difference”. Besides, the relative cellular migration in data set [7] (25 nM, 5% FBS with 200 ng/ml VEGF) was determined as 1.0±0.7. Also, the “MARCKS protein knockdown (Western blot)” value in data set [10] and in data set [13] was “complete knockdown” each time. Also, the “cellular migration, % of controls” value in [12] came out at 68±7%.
Regarding Myristoyl-FARKGALRQ [20-28], in [14], the “emission at 590 nm (alamarBlue)” value amounted to 58.0±12.1. Further, in data set [15], the “proportion of cells migrated across the membrane” value is recorded as 6.9%±1.5%.
